Four compounds from patent US11357759B2, “Composition including ADAM9 inhibitor and the use thereof” (China Medical University, priority 2017, dated 2022) can be followed below.

One series deals with T1, recombinant human ADAM9 (Homo sapiens, UniProt Q13443).
T1 construct: purchased R&D system
T1 sequence (Q13443 29-819): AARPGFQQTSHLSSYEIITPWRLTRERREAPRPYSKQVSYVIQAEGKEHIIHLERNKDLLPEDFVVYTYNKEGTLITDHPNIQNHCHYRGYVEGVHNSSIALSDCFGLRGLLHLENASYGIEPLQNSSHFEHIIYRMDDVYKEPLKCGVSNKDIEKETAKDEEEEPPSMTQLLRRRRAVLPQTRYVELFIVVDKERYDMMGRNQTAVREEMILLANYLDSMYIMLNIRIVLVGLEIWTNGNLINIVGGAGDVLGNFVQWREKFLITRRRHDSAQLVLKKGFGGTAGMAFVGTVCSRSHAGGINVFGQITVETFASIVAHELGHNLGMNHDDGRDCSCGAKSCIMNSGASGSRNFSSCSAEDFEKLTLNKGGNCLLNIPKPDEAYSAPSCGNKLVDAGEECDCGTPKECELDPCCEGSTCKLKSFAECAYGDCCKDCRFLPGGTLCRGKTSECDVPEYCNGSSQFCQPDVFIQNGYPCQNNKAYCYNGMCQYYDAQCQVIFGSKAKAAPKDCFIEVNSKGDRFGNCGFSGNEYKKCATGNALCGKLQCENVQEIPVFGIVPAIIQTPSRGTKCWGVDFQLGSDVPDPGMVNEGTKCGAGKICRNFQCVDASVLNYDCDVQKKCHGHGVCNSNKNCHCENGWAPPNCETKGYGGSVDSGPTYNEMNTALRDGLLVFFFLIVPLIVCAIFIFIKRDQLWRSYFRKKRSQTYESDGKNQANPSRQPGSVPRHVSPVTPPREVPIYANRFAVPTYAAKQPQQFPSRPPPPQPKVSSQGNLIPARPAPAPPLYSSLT
Briefly: ADAM9 enzymatic activity, ELISA system with fluorogenic peptide substrate. It is filed as biochemical. The method, then: To measure the efficacy of ADAM9 inhibitors in suppression of ADAM9 enzymatic activity, we established an ELISA system using recombinant human ADAM9 and a fluorogenic peptide substrate (R&D system). Broad-spectrum metalloprotease inhibitor BB-94 was included as a positive control. […] To evaluate the specificity of ADAM9 inhibitors, we performed a migration inhibition assay in control (shGFP) and ADAM9 knockdown (shADAM9) lung cancer cells in the presence of 25 μM of each compound. […] To ensure the generality of the compounds in blocking anoikis-resistance of cancer cells, we determined the IC50 of representative compounds for anoikis (anchorage-free induced apoptosis) in cancer cell lines and leukocytes in anchorage-free culture conditions. […] Plating efficiency of Bm7 treated with 20 μM ADAM9 inhibitor and TC1 cells treated with 10 μM ADAM9 inhibitor was shown. Control and ADAM9 knockout (KO) TC1 cells were treated with ADAM9 inhibitor for 24 hours and then stained with annexin V and PI. The apoptotic cells (Annexin V positive cells) are indicated as the percentage of gated cells from three independent experiments with mean±SD.

The next series addresses ADAM17 (Homo sapiens, UniProt P78536). Put plainly: ADAM17 inhibition. The series is classed as biochemical.
For series [1], the system named is lung cancer cells in suspension culture. Briefly: Cytotoxicity of lung cancer cells in suspension culture. It is filed as cell-based. From the text: The representative derivatives can reduce CDCP1 expression.
Another series has as its system 4T1-luc cells. Put plainly: 4T1-luc breast tumor model, adjuvant therapy after surgery. The following applies: for mice with no relapse: adjuvant after surgery, 12W0271 10 mg/kg s.c. (over 333 days), doxorubicin 1 mg/kg i.p., 12 times. It is filed as in vivo. The procedure: To compare the therapeutic effect of the inhibitors to chemotherapy agent doxorubicin in breast cancer treatment, we treated mice with 12W0271 or doxorubicin as adjuvant therapy after surgery of primary breast tumors. Balb/c mice received mammary fat pad injection of 5×10^4 4T1-luc cells. ADAM9 inhibitor was subcutaneously injected at 10 mg/kg once a day, 5 times per week for total 12 times. Doxorubicin was intraperitoneally injected at 1 mg/kg, once a day, 5 times per week for total 12 times. […] This breast tumor animal model is a clinically relevant triple negative breast cancer with poor outcome. In doxorubicin treatment, only one mouse (12.5%) had complete response with no relapse. Body weight of survived mice in doxorubicin and 12W0271 groups was determined on day 140. Dash line indicates average body weight in normal mice.

The next series concerns TC1 lung cancer cells. Put plainly: Metastatic lung tumor model (intravenous TC1), combination with cisplatin. The following applies: ADAM9 inhibitor 4 mg/kg i.v., cisplatin 1.5 mg/kg i.p., twice a week for 4 weeks. It is filed as in vivo, mice. The procedure:
To investigate the synergistic effect of chemotherapy drugs and ADAM9 inhibitors, we measured the cytotoxicity of individual and combination of cisplatin and 12W0271 for 3 days in TC1 cells by MTT. […] ADAM9 inhibitor (4 mg/kg) was intravenous injected twice a week for 4 weeks and cisplatin (1.5 mg/kg) was intraperitoneal injected twice a week for 4 weeks.

Sequence of ADAM17 (P78536 215-824, species assumed): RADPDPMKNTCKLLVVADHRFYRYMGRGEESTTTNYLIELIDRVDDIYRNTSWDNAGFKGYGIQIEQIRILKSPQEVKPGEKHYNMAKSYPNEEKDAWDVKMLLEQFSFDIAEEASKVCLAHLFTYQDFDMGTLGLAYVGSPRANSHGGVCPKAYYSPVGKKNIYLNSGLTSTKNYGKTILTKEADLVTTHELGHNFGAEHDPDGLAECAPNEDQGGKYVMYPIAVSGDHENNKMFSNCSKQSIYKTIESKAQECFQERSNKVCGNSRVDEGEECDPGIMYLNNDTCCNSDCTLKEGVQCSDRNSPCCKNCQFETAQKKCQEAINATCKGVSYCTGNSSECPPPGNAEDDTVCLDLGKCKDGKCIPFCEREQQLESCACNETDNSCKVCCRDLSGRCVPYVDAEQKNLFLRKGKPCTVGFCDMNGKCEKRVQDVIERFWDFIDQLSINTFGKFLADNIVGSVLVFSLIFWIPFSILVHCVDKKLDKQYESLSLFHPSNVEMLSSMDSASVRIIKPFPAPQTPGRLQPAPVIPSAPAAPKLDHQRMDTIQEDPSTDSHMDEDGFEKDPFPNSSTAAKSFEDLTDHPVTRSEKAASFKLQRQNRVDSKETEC

On to `O=C(Nc1nc(CCN2C(=O)c3ccccc3C2=O)cs1)c1cc2ccccc2s1` [6X-0214], for which the ADAM9 activity entry at recombinant human ADAM9 is “decreased ADAM9 activity to a similar extent in a dose-dependent manner”. Also, the “inhibitory effects in ADAM17” value against ADAM17 is “no inhibitory effects”. Also, the “IC50 for the cytotoxicity of lung cancer cells, compared to compound 310” value in series [1] is “strongly reduced the IC50”.
For the compound `O=C1c2ccccc2C(=O)N1CCc1csc(Nc2nc(CCN3C(=O)c4ccccc4C3=O)cs2)n1` [12W-0271], the ADAM9 activity entry on recombinant human ADAM9 is recorded as “decreased ADAM9 activity to a similar extent in a dose-dependent manner”. In addition, the “inhibitory effects in ADAM17” value at ADAM17 is “no inhibitory effects”. For the same compound, the “IC50 for the cytotoxicity of lung cancer cells, compared to compound 310” value in series [1] is recorded as “strongly reduced the IC50”. The “mice with no relapse” value with 4T1-luc cells is 37.5%. In addition, in the series with 4T1-luc cells (long term, 10 mg/kg s.c.), the “condition and body size of survived mice” value is on record as “healthy condition with bigger body size than the survival one in doxorubicin group”.
As for `N.N.[Cl][Pt][Cl]` [cisplatin], the survival time entry in the series on TC1 lung cancer cells was “significantly prolonged survival time”.
In the case of `COc1cccc2c1C(=O)c1c(O)c3c(c(O)c1C2=O)C[C@@](O)(C(=O)CO)C[C@@H]3O[C@H]1C[C@H](N)[C@H](O)[C@H](C)O1` [doxorubicin, reference compound], in the series with 4T1-luc cells, the “mice with no relapse” value worked out at 12.5%.
